Measurements: PubChem BioAssay (NCI)
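How tested: cells in 96-well plates exposed to compound for 48 hours at five concentrations. TGI: concentration producing complete growth inhibition.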

What was measured:
Assay in all cases: NCI-60 cell line screen, 48 h
786-0 renal = tested on: 786-0 renal
A498 renal = tested on: A498 renal
BT-549 breast = tested on: BT-549 breast
DU-145 prostate = tested on: DU-145 prostate
HCT-116 colon = tested on: HCT-116 colon
HOP-92 NSCLC = tested on: HOP-92 NSCLC
HS 578T breast = tested on: HS 578T breast
K-562 leukemia = tested on: K-562 leukemia
LOX IMVI melanoma = tested on: LOX IMVI melanoma
MOLT-4 leukemia = tested on: MOLT-4 leukemia
NCI-H226 lung = tested on: NCI-H226 lung
OVCAR-3 ovarian = tested on: OVCAR-3 ovarian
OVCAR-8 ovarian = tested on: OVCAR-8 ovarian
RPMI-8226 leukemia = tested on: RPMI-8226 leukemia
SK-MEL-28 melanoma = tested on: SK-MEL-28 melanoma
SK-OV-3 ovarian = tested on: SK-OV-3 ovarian
SNB-19 CNS = tested on: SNB-19 CNS
UACC-257 melanoma = tested on: UACC-257 melanoma
UO-31 renal = tested on: UO-31 renal

SMILES | TGI (786-0 renal) [µM] | TGI (A498 renal) [µM] | TGI (BT-549 breast) [µM] | TGI (DU-145 prostate) [µM] | TGI (HCT-116 colon) [µM] | TGI (HOP-92 NSCLC) [µM] | TGI (HS 578T breast) [µM] | TGI (K-562 leukemia) [µM] | TGI (LOX IMVI melanoma) [µM] | TGI (MOLT-4 leukemia) [µM] | TGI (NCI-H226 lung) [µM] | TGI (OVCAR-3 ovarian) [µM] | TGI (OVCAR-8 ovarian) [µM] | TGI (RPMI-8226 leukemia) [µM] | TGI (SK-MEL-28 melanoma) [µM] | TGI (SK-OV-3 ovarian) [µM] | TGI (SNB-19 CNS) [µM] | TGI (UACC-257 melanoma) [µM] | TGI (UO-31 renal) [µM]
COC(=O)[C@]1(c2cc3ccccc3n2S(=O)(=O)c2ccccc2)CC2CN(C(C)=O)C1CC2=O (stereo not given in full) | 2.97 | 21.4 | 7.24 | 11.7 | 4.2 | 16.5 | > 43.8 | 12.1 | 3.8 | 4.85 | 10.4 | 6.03 | 11.1 | 4.26 | 11.7 | 21.7 | 12.5 | 7.8 | 3.45
N/C(=N\S(=O)(=O)c1ccc(S(=O)(=O)c2ccccc2)s1)Nc1ccc(Cl)cc1 | 41.5 | 34.7 | 46 | 55.3 | 32.9 | 39.1 | 81.5 | 88.2 | 32.4 | 59.6 | 88.6 | 79.6 | 45.1 | 88.7 | 44 | > 100 | > 100 | 29.1 | 40
C[C@H](CCC(=O)NCCS(=O)(=O)O)[C@H]1CC[C@H]2[C@@H]3CC[C@@H]4C[C@H](O)CC[C@]4(C)[C@H]3CC[C@]12C | > 100 | > 100 | > 100 | > 100 | > 100 | > 100 | > 100 | > 100 | > 100 | > 100 | > 100 | > 100 | > 100 | > 100 | > 100 | > 100 | > 100 | > 100 | > 100
COC(=O)CCC(=O)NC1=C(NCc2ccccc2)C(=O)c2ccccc2C1=O | > 100 | > 100 | > 100 | > 100 | > 100 | 48.2 | > 100 | > 100 | 77.2 | > 100 | > 100 | 33.3 | > 100 | > 100 | > 100 | > 100 | > 100 | 34.1 | > 100
COc1ccc2nc3ccc(OC)cc3c(SCCO)c2c1 | > 60 | > 100 | > 100 | 37.1 | > 69.8 | > 100 | > 100 | > 100 | > 63 | > 30.3 | > 100 | > 100 | > 55.4 | 48.9 | > 100 | > 100 | > 100 | > 100 | > 100
